# In ChEMBL document CHEMBL6134810, “Novel Hypochlorous Acid-Activated Near-Infrared Probe Monitors the Dynamic Changes of Myeloperoxidase Activity in Ischemic Brain” (J Med Chem, 2025):
# Activity calls are given as the source filed them. The rule behind the calls is not given here.
# What was measured:
# HT-22 [1] = test: Cytotoxicity against mouse HT-22 cells assessed as cell viability at 20 uM incubated for 24 hrs by CCK-8 method; type: functional, cell-based
# Mus musculus [2] = organism: Mus musculus; test: Protection against photo thrombotic stroke induced cerebral ischemic male C57 mouse model assessed as reduction in number neutrophils measured after 7 days; type: functional, organism-based; conditions: time 7.0 day
# Mus musculus [3] = organism: Mus musculus; test: Protection against photo thrombotic stroke induced cerebral ischemic male C57 mouse model assessed as improvement in sensory motor dysfunction measured after 5 days by rotarod test; type: functional, organism-based; conditions: time 5.0 day
# Mus musculus [4] = organism: Mus musculus; test: Protection against photo thrombotic stroke induced cerebral ischemic male C57 mouse model assessed as improvement in sensory motor dysfunction measured after 5 days by foot fault test; type: functional, organism-based; conditions: time 5.0 day
# [5] = biological target: T1, Myeloperoxidase (Homo sapiens) (UniProt P05164); test: (§1) Binding affinity to MPO (unknown origin) assessed as dissociation constant by ITC analysis
# T1 sequence (whole entry): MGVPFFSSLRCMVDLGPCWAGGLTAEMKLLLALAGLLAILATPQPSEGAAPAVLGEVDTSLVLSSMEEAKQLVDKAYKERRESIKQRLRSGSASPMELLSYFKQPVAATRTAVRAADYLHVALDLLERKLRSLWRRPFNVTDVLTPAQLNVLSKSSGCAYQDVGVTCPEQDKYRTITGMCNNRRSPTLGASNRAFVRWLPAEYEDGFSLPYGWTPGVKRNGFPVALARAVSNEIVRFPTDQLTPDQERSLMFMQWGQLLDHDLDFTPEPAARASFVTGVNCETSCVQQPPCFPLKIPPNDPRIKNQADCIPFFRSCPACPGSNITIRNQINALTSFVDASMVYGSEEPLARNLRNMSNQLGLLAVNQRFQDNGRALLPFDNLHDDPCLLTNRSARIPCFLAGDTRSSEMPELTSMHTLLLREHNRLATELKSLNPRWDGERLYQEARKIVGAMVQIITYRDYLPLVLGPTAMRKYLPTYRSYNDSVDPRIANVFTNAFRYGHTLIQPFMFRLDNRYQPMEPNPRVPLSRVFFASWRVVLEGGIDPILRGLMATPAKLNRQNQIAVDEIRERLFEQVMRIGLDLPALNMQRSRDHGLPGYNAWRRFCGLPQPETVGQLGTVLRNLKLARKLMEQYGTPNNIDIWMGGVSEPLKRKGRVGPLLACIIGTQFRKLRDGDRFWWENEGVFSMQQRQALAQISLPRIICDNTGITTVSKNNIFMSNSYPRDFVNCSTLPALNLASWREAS
# [6] = biological target: T1, Myeloperoxidase (Homo sapiens); test: Binding affinity to MPO (unknown origin) assessed as change in enthalpy by ITC analysis
# Mus musculus [7] = test: Protection against photo thrombotic stroke induced cerebral ischemia in male C57BL/6 mouse model assessed as inhibition of MPO activity in brain at 40 mg/kg, IG preincubated for 18 consecutive days followed by induction of stoke for 3 days and measured after 7 days; type: functional, organism-based; conditions: time 28.0 day
# Mus musculus [8] = test: Protection against photo thrombotic stroke induced cerebral ischemia in male C57BL/6 mouse model assessed as decrease in infarct size at 40 mg/kg, IG preincubated for 18 consecutive days followed by induction of stoke for 3 days and measured after 5 days by TTC staining based analysis; type: functional, organism-based; conditions: time 26.0 day
# Mus musculus [9] = test: Protection against photo thrombotic stroke induced cerebral ischemia in male C57BL/6 mouse model assessed as effect on body weight at 40 mg/kg, IG preincubated for 18 consecutive days followed by induction of stoke for 3 days and measured after 5 days by TTC staining based analysis; type: functional, organism-based; conditions: time 26.0 day
# Mus musculus [10] = test: Protection against photo thrombotic stroke induced cerebral ischemia in male C57BL/6 mouse model assessed as amelioration of foot fault in forelimb at 40 mg/kg, IG preincubated for 18 consecutive days followed by induction of stoke for 3 days and measured after 5 to 15 days by foot fault test; type: functional, organism-based; conditions: time 26-36 day
# Mus musculus [11] = test: Protection against photo thrombotic stroke induced cerebral ischemia in male C57BL/6 mouse model assessed as amelioration of foot fault in hindlimb at 40 mg/kg, IG preincubated for 18 consecutive days followed by induction of stoke for 3 days and measured after 5 to 15 days by foot fault test; type: functional, organism-based; conditions: time 26-36 day
# Mus musculus [12] = test: Protection against photo thrombotic stroke induced cerebral ischemia in male C57BL/6 mouse model assessed as decrease in asymmetry index at 40 mg/kg, IG preincubated for 18 consecutive days followed by induction of stoke for 3 days and measured after 10 to 15 days by foot fault test; type: functional, organism-based; conditions: time 31-36 day
# HT-22 [13] = test: Cytotoxicity against mouse HT-22 cells assessed as cell viability at 50 uM incubated for 24 hrs by CCK-8 method; type: functional, cell-based
# Myeloperoxidase = biological target: T2, Myeloperoxidase (Homo sapiens, UniProt P05164); test: as §1
# T2 sequence (P05164 whole entry): T1 sequence (whole entry)
# [14] = biological target: T1, Myeloperoxidase (Homo sapiens); test: Induction of thermal stabilization of MPO (unknown origin) at 10 uM by CESTA analysis
# [15] = Drug uptake in human HeLa cells at 10 uM measured after 30 mins by Hoechst staining based confocal microscopic analysis; type: ADME, cell-based; conditions: 0.5 h
# [16] = Drug uptake in human HeLa cells assessed as increase in red fluorescence at 10 uM measured after 30 mins in presence of HClO by Hoechst staining based confocal microscopic analysis; type: ADME, cell-based; conditions: 0.5 h
# [17] = Drug uptake in human HeLa cells assessed as increase in red fluorescence at 10 uM measured within 40 mins in presence of HClO by Hoechst staining based confocal microscopic analysis; type: ADME, cell-based
# [18] = Drug uptake in IFN-gamma treated human Neutrophil cells assessed as increase in fluorescence at 10 uM measured after 30 mins by Hoechst staining based confocal microscopic analysis; type: ADME, cell-based; conditions: 0.5 h
# Mus musculus [19] = test: Protection against photo thrombotic stroke induced cerebral ischemia in male C57BL/6 mouse model assessed as MPO secretion in brain at 1 mg/kg, iv by Ly6G staining based confocal microscopy based analysis; type: functional, organism-based
# [20] = biological target: T1, Myeloperoxidase (Homo sapiens); test: Inhibition of MPO in HEK293T cells harbouring MPO-ZsGreen assessed as decrease in red fluorescence intensity at 10 uM preincubated with MPO-IN-28 for 4 hrs followed by compound addition and measured after 30 mins by fluorescence imaging based confocal microscopy analysis; type: cell-based
# [21] = biological target: T1, Myeloperoxidase (Homo sapiens); test: Inhibition of MPO in HEK293T cells harbouring MPO-ZsGreen assessed as decrease in red fluorescence intensity at 10 uM preincubated with AZD5904 for 4 hrs followed by compound addition and measured after 30 mins by fluorescence imaging based confocal microscopy analysis; type: cell-based
# [22] = biological target: T1, Myeloperoxidase (Homo sapiens); test: Inhibition of MPO in human HL-60 cells harbouring MPO-ZsGreen assessed as decrease in red fluorescence intensity at 10 uM preincubated with MPO-IN-28 for 2 hrs followed by compound addition and measured after 30 mins by fluorescence imaging based confocal microscopy analysis; type: cell-based
# [23] = biological target: T1, Myeloperoxidase (Homo sapiens); test: Inhibition of MPO in human HL-60 cells harbouring MPO-ZsGreen assessed as decrease in red fluorescence intensity at 10 uM preincubated with AZD5904 for 2 hrs followed by compound addition and measured after 30 mins by fluorescence imaging based confocal microscopy analysis; type: cell-based
# [24] = biological target: T1, Myeloperoxidase (Homo sapiens); test: Inhibition of MPO in HEK293T cells harbouring MPO-ZsGreen assessed as decrease in red fluorescence intensity at 10 uM preincubated with ZL-006 for 4 hrs followed by compound addition and measured after 30 mins by fluorescence imaging based confocal microscopy analysis; type: cell-based
# [25] = biological target: T1, Myeloperoxidase (Homo sapiens); test: Inhibition of MPO in HEK293T cells harbouring MPO-ZsGreen assessed as decrease in red fluorescence intensity at 10 uM preincubated with ZL-002 for 4 hrs followed by compound addition and measured after 30 mins by fluorescence imaging based confocal microscopy analysis; type: cell-based
# [26] = biological target: T1, Myeloperoxidase (Homo sapiens); test: Inhibition of MPO in HEK293T cells harbouring MPO-ZsGreen assessed as decrease in red fluorescence intensity at 10 uM preincubated with edaravone for 4 hrs followed by compound addition and measured after 30 mins by fluorescence imaging based confocal microscopy analysis; type: cell-based
# Brain [27] = test: (§2) Ex vivo protection against photo thrombotic stroke induced cerebral ischemia in male C57BL/6 mouse brain assessed as decrease in MPO induced HClO fluorescence signal in cortex at 10 uM preincubated with MPO-IN-28 for 1 hr followed by compound addition and measured after 30 mins by fluorescence imaging based confocal microscopy analysis; type: functional, tissue-based
# Brain [28] = test: as §2, with “AZD5904” for “MPO-IN-28”; type: functional, tissue-based
# Mus musculus [29] = organism: Mus musculus; test: Protection against photo thrombotic stroke induced cerebral ischemia in male C57BL/6 mouse model assessed as decrease in fluorescence response in brain cortex preincubated with AZD5904 for 18 consecutive days followed by induction of stoke for 3 days and measured after 7 days by Ly6G staining based confocal microscopy based analysis; type: functional, organism-based; conditions: time 7.0 day
structure (smiles),measurement,setting,value
CN(C)c1ccc2c(c1)[Si](C)(C)c1cc(N(C)C)ccc1C21c2ccccc2C(=O)N1NC(=S)NCCc1c[nH]c2ccc(O)cc12,Activity,HT-22 [1],Active
CC1=NN(c2ccccc2)C(=O)C1,Activity,Mus musculus [2],inactive
same,Activity,Mus musculus [3],inactive
same,Activity,Mus musculus [4],inactive
CCNc1cc2[o+]c3cc(NCC)c(C)cc3c(-c3ccccc3C(=O)OCC)c2cc1C,Activity,[5],inactive
same,Activity,[6],inactive
O=c1[nH]c(=S)n(C[C@H]2CCCO2)c2nc[nH]c12,Activity,Mus musculus [7],Active
same,Activity,Mus musculus [8],Active
same,Activity,Mus musculus [9],Active
same,Activity,Mus musculus [10],Active
same,Activity,Mus musculus [11],Active
same,Activity,Mus musculus [12],Active
COc1ccc2[nH]cc(CCNC(=S)NN3C(=O)c4ccccc4C34c3ccc(N(C)C)cc3[Si](C)(C)c3cc(N(C)C)ccc34)c2c1,Activity,HT-22 [13],Active; Compound Showed Little Toxicity
same,Kd,Myeloperoxidase,11.6 µM
same,deltaH,[6],2.39 kcal/mol
same,Activity,[14],Active
same,Drug uptake,[15],Not_active
same,Drug uptake,[16],Active
same,Drug uptake,[17],Not_active
same,Drug uptake,[18],Active
same,Activity,Mus musculus [19],Active
same,inhibition,[20],Active
same,inhibition,[21],Active
same,inhibition,[22],Active
same,inhibition,[23],Active
same,inhibition,[24],Active
same,inhibition,[25],inactive
same,inhibition,[26],inactive
same,Activity,Brain [27],Active
same,Activity,Brain [28],Active
same,Activity,Mus musculus [29],Active
